Consider five molecules from ChEMBL document CHEMBL1128065, “Stereochemical preferences and requirement for the 3-hydroxyl group in novel anticonvulsant 4-fluorobenzoylamino benzopyrans” (1995).

One experiment is filed under the species Mus musculus. The experiment can be described thus: Effect on percent increase in seizure threshold was evaluated by maximal electroshock threshold (MEST) test in mouse. The format is functional. On the technique in general: In the maximal electroshock model the usual endpoint is tonic extension of the hind limbs.
In the next experiment the test system is Rattus norvegicus. The experiment can be described thus: Tested for blood pressure fall on i.v. administration at a dose of 10 mg/kg infused over 30 minutes in pentobarbitone-anaesthetized hooded lister rats. The class given is functional. The settings on record: route intravenous.

On to `CC1(C)Oc2ccc(C#N)cc2[C@H](NC(=O)c2ccc(F)cc2)[C@H]1O`, for which the Increase in the experiment listed under Mus musculus came to 41%.
Still for that read-out and setting: then `CC1(C)Oc2ccc(C#N)cc2[C@@H](NC(=O)c2ccc(F)cc2)[C@@H]1O`, with 17%; and `CC1(C)CC(NC(=O)c2ccc(F)cc2)c2cc(C#N)ccc2O1` (configuration not stated), with 5%.
Turning to `CC1(C)Oc2ccc(C#N)cc2[C@@H](NC(=O)c2ccc(F)cc2)[C@H]1O`, the Increase in the experiment filed under Mus musculus was determined as 0%. The BP in the experiment on Rattus norvegicus is reported as 36%.
On the same counts, the results for `CC1(C)Oc2ccc(C#N)cc2[C@H](NC(=O)c2ccc(F)cc2)[C@@H]1O` are 28% and 5%.
